Counter-ions that a name gives are not always drawn.
How the values were obtained:
[1] = system: ulcer induced by phenylbutazone; assay: Anti-ulcerous activity, ulcer from phenylbutazone (9-keto sodium salt); assay type: in vivo, Female rats of the Wistar stock
Procedure: The anti-ulcerous activity of the compound in question is tested on an ulcer induced by aspirin and on an ulcer induced by phenyl butazone. In both models the mucous lesions are localized in the glandular section of the stomach. Female rats of the Wistar stock weighing 140-170 g are involved. 24 hours before the start of the test the rats are made to fast, while they are allowed water at will. Each test group consists of 12 animals. For the formation of the ulcer, 200 mg of phenylbutazone/kg in 2 ml of 0.5% gum arabic are administered to the animals orally. 10 minutes before administration of phenylbutazone, and 21/2 hours afterwards, substance in question is administered orally (in 0.5% gum arabic solution) or intravenously (in 0.9% sodium chloride solution) in variable doses (see table). The animals are killed 5 hours after administration of phenylbutazone, the stomachs are prepared and examined under a stereomicroscope, to evaluate the number and size of the lesions.

[2] = system: ulcer induced by aspirin; assay: Anti-ulcerous activity, ulcer from aspirin (9-keto sodium salt); assay type: in vivo, Female rats of the Wistar stock
Procedure: The anti-ulcerous activity of the compound in question is tested on an ulcer induced by aspirin and on an ulcer induced by phenyl butazone. In both models the mucous lesions are localized in the glandular section of the stomach.
Female rats of the Wistar stock weighing 150-175 g were selected. 24 hours before the start of the test the animals were made to fast, allowing water at will.
Each test group consists of 12 animals. The aspirin is administered orally in the form of a suspension (45 mg in ml of 0.5% carboxymethylcellulose for each animal). The application of the sodium salt in question takes place either intravenously (2 × 5 mg or 1 × 50 mg of substance/kg in 2 ml of 0.9% sodium chloride solution) or orally (2 × 10 mg or 2 × 100 mg of substance/kg in 2 ml of 0.5% carboxymethylcellulose suspension). The first dose is administered 10 minutes before application of the aspirin, and the second dose two and a half hours afterwards. […] The animals are killed 5 hours after application of the aspirin, the stomachs are prepared, and the number and size of the lesions is evaluated with a stereomicroscope.

[3] = Triglyceridemia and cholesterolemia in rats given alcohol 10%; assay type: in vivo, Male Sprague-Dawley rats; settings: 1 week endoperitoneal once daily (CPIB, BBA 200 mg/kg; C83 50 mg/kg); for Cholesterolemia: controls 91.5 ± 6.6, alcohol 81.0 ± 4.6; for Triglyceridemia: controls 97.8 ± 5.1, alcohol 169.0 ± 25.0
Procedure: | Treatment for 1 week CPIB - BBA - 200 mg/kg endoperitoneal; C83 | 50mg/kg endoperitoneal; only one daily administration. | Male Sprague-Dawley rats 150 gr. | Groups of 6 rats.

[4] = Deepness and rapidity test (untitled table 6); assay type: in vivo, Male Sprague-Dawley rats; settings: 200 mg/kg endoperitoneal; for Rapidity ± E.S.: controls 3.4 ± 0.3; for Deepness (mm ± E.S.): controls 74.9 ± 6.2
Procedure: | Treatment with the dose of 200 mg/kg endoperitoneal, one or two hours | before sacrifice. Male Sprague-Dawley rats with an average weight of 150 | gr.

[5] = LD50 by mouth in the mouse; assay type: in vivo; settings: in vivo, po
Procedure: a. LD50 by mouth in the mouse about 3000 mg/kg
25 gr of XVI are dissolved in 400 ml of water with NaOH 15% to pH 9, filtered and lyophilized : 24 gr of sodium salt of XVI as a white solid are obtained, humidity (K. Fisher) 2.08%, no U.V. absorption, equivalent weight found 301.7, I.R. bands at 3400, 1765, 1565, 1460, 1420, 1378 cm^-1.
After 20 hours at 20°, the solvent is evaporated in vacuo, the residue is dissolved in 1300 ml of water treated with 120 ml of acetic acid, extracted with chloroform. After solvent evaporation, 65.1 gr of the compound XVIII are obtained, as an oil, I.R. bands at 3420, 3100, 1710 cm^-1. 35 gr of the compound XVIII are dissolved in 600 ml of water with NaOH to pH 9. The solution is filtered and lyophilized: 35.5 gr of sodium salt of 9-hydroxy-19,20-bis-nor-prostanoic acid are obtained, as white solid, humidity (K.Fisher) 1.73%, no U.V. absorption, equivalent weight found 320, I.R. bands at 3400, 3300, 1565, 1460, 1390 cm^-1, LD50 by mouth in mice about 3000 mg/kg.

CCCCCCC1=C(CCCCCCC(=O)O)C(=O)CC1 [9-keto-19,20-bis-nor-8(12)-prostenoic acid, sodium salt]
inhibition at 50 mg/kg ([1]; Rattus norvegicus, iv, 1 × 50 mg/kg): 42.5%
inhibition at 5 mg/kg ([1]; Rattus norvegicus, iv, 2 × 5 mg/kg): 83.1%
inhibition at 10 mg/kg ([1]; Rattus norvegicus, po, 2 × 10 mg/kg): 54.9%
inhibition at 100 mg/kg ([1]; Rattus norvegicus, po, 2 × 100 mg/kg): 80.2%
Ulcer scale (x ± Sx) ([1]; i.v., 1 × 50 mg/kg, controls 11.17 ± 2.77): 6.42 ± 3.41
Ulcer scale (x ± Sx) ([1]; i.v., 2 × 5 mg/kg, controls 11.17 ± 2.77, p<0.05): 3.00 ± 0.92
inhibition of ulcerating effect of phenylbutazone (in words) ([1]; orally): can inhibit the ulcerating effect of phenylbutazone depending on the doses (orally)
Ulcer scale (x ± Sx) ([1]; p.o., 2 × 10 mg/kg, controls 9.25 ± 1.81, p<0.05): 4.17 ± 0.91
Ulcer scale (x ± Sx) ([1]; p.o., 2 × 100 mg/kg, controls 9.25 ± 1.81, p<0.01): 1.83 ± 0.69
Ulcer scale (x ± Sx) ([2]; i.v., 1 × 50 mg/kg, p<0.01): 5.08 ± 2.38
Ulcer scale (x ± Sx) ([2]; i.v., 2 × 5 mg/kg): 11.80 ± 5.1
inhibition of ulcerating effect of aspirin (in words) ([2]; oral and intravenous): inhibits considerably the ulcerating effect of the aspirin in both oral doses, and in the higher doses in the case of intravenous application
Ulcer scale (x ± Sx) ([2]; p.o., 2 × 10 mg/kg, controls 17.95 ± 2.98, p<0.05): 9.25 ± 2.11
Ulcer scale (x ± Sx) ([2]; p.o., 2 × 100 mg/kg, controls 17.95 ± 2.98, p<0.01): 5.83 ± 2.11

CCOC(=O)C(C)(C)Oc1ccc(Cl)cc1 [CPIB, clofibrate]
Cholesterolemia [3]: 59.7 ± 2.9
Triglyceridemia [3]: 151.2 ± 10.4

CC(=O)Oc1ccccc1C(=O)O [aspirin, reference compound]
Rapidity ± E.S. ([4]; 1 hour before sacrifice): 1.2 ± 0.1
Deepness (mm ± E.S.) ([4]; 1 hour before sacrifice): 17.7 ± 2.4 mm
Rapidity ± E.S. ([4]; 2 hours before sacrifice): 2.5 ± 0.2
Deepness (mm ± E.S.) ([4]; 2 hours before sacrifice): 48.4 ± 4.4 mm

CC(=Cc1ccccc1)CC(=O)O [BBA, β-benzalbutyric acid]
Cholesterolemia [3]: 66.5 ± 1.6
Triglyceridemia [3]: 143.4 ± 17.8

CCCCCCC12CCC(O)C1(CCCCCCC(=O)O)O2 (centres unmarked) [sodium salt of XVI, 9-hydroxy-8(12)-epoxy-19,20-bis-nor prostanoic acid]
LD50 [5]: ~1500 mg/kg
